Assay results as given in patent publication US11807693B2 (priority 2014, dated 2023).
Where two headings read alike, the source gives them in different places. Starred links: 1 amine or outer side, 2 acyl side, 3 side chain; linkers in the order of their positions; H or OH if unused. Non-standard residues stand in square brackets, D forms with d. Residues, ends and D or L forms follow the SMILES beside them. ξ: configuration not given here. *: point of attachment. Oic = O=C(O)[C@@H]1C[C@@H]2CCCC[C@@H]2N1; Phe(4-Cl) = N[C@@H](Cc1ccc(Cl)cc1)C(=O)O; γGlu = O=C(O)[C@H](CCC(=O)[*:2])N[*:1]; d(β3hF) = N[C@@H](CC(=O)O)Cc1ccccc1; NMeR = CN[C@@H](CCCNC(=N)N)C(=O)O; Palmitoyl = CCCCCCCCCCCCCCCC(=O)*; Tridecanoyl = CCCCCCCCCCCCC(=O)*; hArg = N=C(N)NCCCC[C@H](N)C(=O)O; Cha = N[C@@H](CC1CCCCC1)C(=O)O; αMeL = CC(C)C[C@](C)(N)C(=O)O; αMeP = C[C@@]1(C(=O)O)CCCN1; Pip = O=C(O)[C@@H]1CCCCN1; β3hS = N[C@@H](CO)CC(=O)O; Ac6c = NC1(C(=O)O)CCCCC1; Nle = CCCC[C@H](N)C(=O)O; ξβ3hV = CC(C)C(N)CC(=O)O; AEEA = NCCOCCOCC(=O)O; Aib = CC(C)(N)C(=O)O

Tests used:
[1] = In vitro stability in rat plasma; format: in vitro ADME
Method in brief: (§1)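 High resolution LC-MS of the supernatant gave remaining peptide. Samples came from 37° C. incubations of 5 μM apelin peptide in rat plasma or liver or kidney homogenate over 4 hr, stopped with methanol plus internal standard.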

[2] = molecular target: T1, rat APJ receptor (Rattus norvegicus, UniProt Q9JHG3); assay: [35S] GTPγS assay, rat APJ receptor; format: biochemical
T1 construct: expressed in transfected cells
T1 sequence (Q9JHG3 1-377): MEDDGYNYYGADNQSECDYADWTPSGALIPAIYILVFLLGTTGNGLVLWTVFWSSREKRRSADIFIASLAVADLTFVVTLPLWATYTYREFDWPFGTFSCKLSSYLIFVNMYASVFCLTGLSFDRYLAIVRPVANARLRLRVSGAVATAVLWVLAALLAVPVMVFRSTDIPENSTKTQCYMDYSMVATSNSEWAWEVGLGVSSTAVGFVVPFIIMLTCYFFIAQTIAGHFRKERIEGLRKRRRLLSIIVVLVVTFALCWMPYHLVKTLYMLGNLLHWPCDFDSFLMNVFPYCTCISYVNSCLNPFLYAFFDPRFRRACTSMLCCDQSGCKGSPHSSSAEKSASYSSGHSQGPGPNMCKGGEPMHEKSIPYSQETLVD
Method: The membranes were incubated with modified peptides in the assay buffer. […] Bound [^35S] GTPγS was separated from free radiolabel by filtration. The filter bound radioactivity was determined by liquid scintillation counting.

[3] = In vitro stability in rat kidney homogenate; format: in vitro ADME; details: rat, tissue homogenate
Method in brief: as §1

[4] = In vitro stability in rat liver homogenate; format: in vitro ADME; details: tissue homogenate
Method in brief: as §1

[5] = Table 16, read-out: EC50 Rat APJ Receptor
[6] = rat APJ receptor, read-out: EC50 Rat APJ Receptor

CCCCCCCCCCCCC(=O)N[C@@H](CCC(=O)NCCOCCOCC(=O)NCCOCCOCC(=O)N[C@H](CCC(N)=O)C(=O)N[C@@H](CCCNC(=N)N)C(=O)N1CCC[C@H]1C(=O)N(C)[C@@H](CCCNC(=N)N)C(=O)N[C@@H](CC1CCCCC1)C(=O)N[C@@H](CO)CC(=O)N[C@@H](Cc1c[nH]cn1)C(=O)N[C@@H](CCCCN)C(=O)NCC(=O)N1[C@H](C(=O)N[C@@H](CCCC)C(=O)NC(C)(C)C(=O)N[C@@H](Cc2ccc(Cl)cc2)C(=O)O)C[C@@H]2CCCC[C@@H]21)C(=O)O [compound 500] ({Tridecanoyl-γGlu-AEEA-AEEA}-[dQ]RP[NMeR][Cha][β3hS]HKG[Oic][Nle][Aib][Phe(4-Cl)]-OH)
remaining at 4 h, 5 μM [1]: > 90%
EC50 [2, 5]: 3.14 nM
remaining at 4 h, 5 μM [3]: < 1%
remaining at 4 h, 5 μM [4]: 13%

CCCCCCCCCCCCC(=O)N[C@@H](CCC(=O)NCCOCCOCC(=O)NCCOCCOCC(=O)N[C@@H](CCCNC(=N)N)C(=O)N[C@@H](CCC(N)=O)C(=O)N[C@@H](CCCC)C(=O)N1CCC[C@H]1C(=O)N[C@@H](CCCCNC(=N)N)C(=O)N[C@@H](CC1CCCCC1)C(=O)N[C@@H](CO)C(=O)N[C@@H](C)C(=O)N[C@@H](CCCCN)C(=O)NCC(=O)N1CCCC[C@H]1C(=O)N[C@@H](CCCC)C(=O)N1CCC[C@H]1C(=O)N[C@@H](Cc1ccc(Cl)cc1)C(=O)O)C(=O)O [compound 564] ({Tridecanoyl-γGlu-AEEA-AEEA}-RQ[Nle]P[hArg][Cha]SAKG[Pip][Nle]P[Phe(4-Cl)]-OH)
remaining at 4 h, 5 μM [1]: > 90%
EC50 [2, 5]: 1.49 nM
remaining at 4 h, 5 μM [3]: < 1%
remaining at 4 h, 5 μM [4]: 2%

CCCCCCCCCCCCCCCC(=O)N[C@@H](CCC(=O)NCCOCCOCC(=O)NCCOCCOCC(=O)N[C@H](CCC(N)=O)C(=O)N[C@@H](CCCNC(=N)N)C(=O)N1CCC[C@H]1C(=O)N(C)[C@@H](CCCNC(=N)N)C(=O)N[C@@H](CC1CCCCC1)C(=O)N[C@@H](CO)C(=O)N[C@@H](Cc1c[nH]cn1)C(=O)N[C@@H](CCCCN)C(=O)NCC(=O)N1[C@H](C(=O)N[C@@H](CCCC)C(=O)NC2(C(=O)N[C@@H](Cc3ccc(Cl)cc3)C(=O)O)CCCCC2)C[C@@H]2CCCC[C@@H]21)C(=O)O [compound 584] ({Palmitoyl-γGlu-AEEA-AEEA}-[dQ]RP[NMeR][Cha]SHKG[Oic][Nle][Ac6c][Phe(4-Cl)]-OH)
remaining at 4 h, 5 μM [1]: 62%
EC50 [2, 6]: 52.2 nM
remaining at 4 h, 5 μM [3]: 6%
remaining at 4 h, 5 μM [4]: 77%

CCCCCCCCCCCCC(=O)N[C@@H](CCC(=O)NCCOCCOCC(=O)NCCOCCOCC(=O)N[C@@H](CCC(N)=O)C(=O)N[C@@H](CCCNC(=N)N)C(=O)N1CCC[C@H]1C(=O)N(C)[C@@H](CCCNC(=N)N)C(=O)N[C@@H](CC(C)C)C(=O)N[C@@H](CO)C(=O)N[C@@H](Cc1c[nH]cn1)C(=O)N[C@@H](CCCCN)C(=O)NCC(=O)N1CCC[C@H]1C(=O)N[C@@H](CCCC)C(=O)N1CCC[C@@]1(C)C(=O)N[C@@H](Cc1ccc(Cl)cc1)C(=O)O)C(=O)O [compound 401]
remaining at 4 h, 5 μM [1]: 6%
EC50 [2, 5]: 0.351 nM
remaining at 4 h, 5 μM [3]: 3%
remaining at 4 h, 5 μM [4]: 1%

CCCCCCCCCCCCC(=O)N[C@@H](CCC(=O)NCCOCCOCC(=O)NCCOCCOCC(=O)N[C@@H](CCC(N)=O)C(=O)N[C@@H](CCCCNC(=N)N)C(=O)N1CCC[C@H]1C(=O)N(C)[C@@H](CCCNC(=N)N)C(=O)N[C@@H](CC1CCCCC1)C(=O)N[C@@H](CO)C(=O)N[C@@H](Cc1c[nH]cn1)C(=O)N[C@@H](CCCCN)C(=O)NCC(=O)N1[C@H](C(=O)N[C@@H](CCCC)C(=O)N2CCC[C@H]2C(=O)N[C@@H](Cc2ccc(Cl)cc2)C(=O)O)C[C@@H]2CCCC[C@@H]21)C(=O)O [compound 362] ({Tridecanoyl-γGlu-AEEA-AEEA}-Q[hArg]P[NMeR][Cha]SHKG[Oic][Nle]P[Phe(4-Cl)]-OH)
remaining at 4 h, 5 μM [1]: 79%
EC50 [2, 5]: 3.75 nM
remaining at 4 h, 5 μM [3]: 2.5%
remaining at 4 h, 5 μM [4]: 39%

CCCC[C@H](NC(=O)[C@@H]1CCCN1C(=O)CNC(=O)[C@H](CCCCN)NC(=O)[C@H](Cc1c[nH]cn1)NC(=O)[C@H](CO)NC(=O)[C@](C)(CC(C)C)NC(=O)[C@H](CCCCNC(=N)N)NC(=O)[C@@H]1CCCN1C(=O)[C@@H](CCCNC(=N)N)NC(=O)[C@H](CCC(N)=O)NC(=O)COCCOCCNC(=O)COCCOCCNC(=O)CC[C@H](NC(=O)CCCCC(=O)O)C(=O)O)C(=O)N1CCC[C@H]1C(=O)N[C@@H](Cc1ccc(Cl)cc1)C(=O)O [compound 515]
remaining at 4 h, 5 μM [1]: 2%
EC50 [2, 6]: 5.94 nM
remaining at 4 h, 5 μM [3]: 6%
remaining at 4 h, 5 μM [4]: < 1%

CCCCCCCCCCCCC(=O)N[C@@H](CCC(=O)NCCOCCOCC(=O)NCCOCCOCC(=O)NC(CC(=O)N[C@@H](CCCNC(=N)N)C(=O)N1CCC[C@H]1C(=O)N(C)[C@@H](CCCNC(=N)N)C(=O)NC(CC(=O)N[C@@H](CO)C(=O)N[C@@H](Cc1c[nH]cn1)C(=O)N[C@@H](CCCCN)C(=O)NCC(=O)N1[C@H](C(=O)N[C@@H](CCCC)C(=O)N2CCC[C@H]2C(=O)N[C@@H](Cc2ccc(Cl)cc2)C(=O)O)C[C@@H]2CCCC[C@@H]21)C(C)C)C(C)C)C(=O)O (stereo partly drawn) [compound 394] ({Tridecanoyl-γGlu-AEEA-AEEA}-[ξβ3hV]RP[NMeR][ξβ3hV]SHKG[Oic][Nle]P[Phe(4-Cl)]-OH)
remaining at 4 h, 5 μM [1]: 86%
EC50 [2, 6]: 1.5 nM
remaining at 4 h, 5 μM [3]: 2%
remaining at 4 h, 5 μM [4]: 8%

CCCCCCCCCCCCCCCC(=O)N[C@@H](CCC(=O)NCCOCCOCC(=O)NCCOCCOCC(=O)N[C@H](CCC(N)=O)C(=O)N[C@@H](CCCNC(=N)N)C(=O)N1CCC[C@H]1C(=O)N(C)[C@@H](CCCNC(=N)N)C(=O)N[C@@H](CC1CCCCC1)C(=O)N[C@@H](CO)C(=O)N[C@@H](Cc1c[nH]cn1)C(=O)N[C@@H](CCCCN)C(=O)NCC(=O)N1[C@H](C(=O)N[C@@H](CCCC)C(=O)N2CCC[C@@]2(C)C(=O)N[C@@H](CC(=O)O)Cc2ccccc2)C[C@@H]2CCCC[C@@H]21)C(=O)O [compound 570] ({Palmitoyl-γGlu-AEEA-AEEA}-[dQ]RP[NMeR][Cha]SHKG[Oic][Nle][αMeP][d(β3hF)]-OH)
remaining at 4 h, 5 μM [1]: > 90%
EC50 [2, 6]: 19.8 nM
remaining at 4 h, 5 μM [3]: 11%
remaining at 4 h, 5 μM [4]: 32%

CCCCCCCCCCCCC(=O)N[C@@H](CCC(=O)NCCOCCOCC(=O)NCCOCCOCC(=O)N[C@@H](CCC(N)=O)C(=O)N[C@@H](CCCCNC(=N)N)C(=O)N1CCC[C@H]1C(=O)N(C)[C@@H](CCCNC(=N)N)C(=O)N[C@@](C)(CC(C)C)C(=O)N[C@@H](CO)C(=O)N[C@@H](Cc1c[nH]cn1)C(=O)N[C@@H](CCCCN)C(=O)NCC(=O)N1[C@H](C(=O)N[C@@H](CCCC)C(=O)N2CCC[C@H]2C(=O)N[C@@H](Cc2ccc(Cl)cc2)C(=O)O)C[C@@H]2CCCC[C@@H]21)C(=O)O [compound 359] ({Tridecanoyl-γGlu-AEEA-AEEA}-Q[hArg]P[NMeR][αMeL]SHKG[Oic][Nle]P[Phe(4-Cl)]-OH)
remaining at 4 h, 5 μM [1]: 62%
EC50 [2, 5]: 0.116 nM
remaining at 4 h, 5 μM [3]: 2%
remaining at 4 h, 5 μM [4]: 3%

CCCCCCCCCCCCC(=O)N[C@H](CC(=O)O)C(=O)NCCOCCOCC(=O)NCCOCCOCC(=O)N[C@H](CCC(N)=O)C(=O)N[C@@H](CCCNC(=N)N)C(=O)N1CCC[C@H]1C(=O)N(C)[C@@H](CCCNC(=N)N)C(=O)N[C@@H](CC1CCCCC1)C(=O)N[C@@H](CO)C(=O)N[C@@H](Cc1c[nH]cn1)C(=O)N[C@@H](CCCCN)C(=O)NCC(=O)N1[C@H](C(=O)N[C@@H](CCCC)C(=O)NC(C)(C)C(=O)N[C@@H](Cc2ccc(Cl)cc2)C(=O)O)C[C@@H]2CCCC[C@@H]21 [compound 538] (Tridecanoyl-[dD][AEEA][AEEA][dQ]RP[NMeR][Cha]SHKG[Oic][Nle][Aib][Phe(4-Cl)]-OH)
remaining at 4 h, 5 μM [1]: 73%
remaining at 4 h, 5 μM [3]: < 1%
remaining at 4 h, 5 μM [4]: 2%
